Data on 19 compounds can be found in ChEMBL document CHEMBL5241092, “The antibacterial activity of fluoroquinolone derivatives: An update (2018-2021)” (2021).

Type in all cases: functional
One experiment concerns Staphylococcus aureus. Kind of experiment: Antibacterial activity against Staphylococcus aureus.
The next experiment concerns Klebsiella pneumoniae. Kind of experiment: Antibacterial activity against Klebsiella pneumoniae.
A further experiment relates to Pseudomonas aeruginosa. Description: Antibacterial activity against Pseudomonas aeruginosa.
The subject of the next experiment is Escherichia coli. Description: Antibacterial activity against Escherichia coli.
A further experiment concerns Listeria monocytogenes. Kind of experiment: Antibacterial activity against Listeria monocytogenes.
Experiment [1] has as its system Lactobacillus acidophilus. Kind of experiment: Antibacterial activity against Lactobacillus acidophilus.
Experiment [2] deals with Yersinia pseudotuberculosis. Description: Antibacterial activity against Yersinia pseudotuberculosis.
A further experiment deals with Enterococcus faecalis. Kind of experiment: Antibacterial activity against Enterococcus faecalis.
In experiment [3] the test system is Staphylococcus epidermidis. Description: Antibacterial activity against Staphylococcus epidermidis.

≈ marks a conversion by molar mass, not a printed value.

As usually defined, the MIC is the lowest concentration found to suppress growth. Low values mean greater potency, high ones weaker potency. Turning to `CCN1CCN(c2cc3c(cc2F)c(=O)c(C(=O)O)cn3CC)CC1`, the minimal inhibitory concentration (MIC) against Staphylococcus aureus, in the experiment on Klebsiella pneumoniae, with Pseudomonas aeruginosa and against Escherichia coli was 1.1 µg/mL (≈ 3.17 µM) each time.
Consider `COc1c(N2C[C@H]3CCCN(Cc4ccc(Cl)cc4)[C@H]3C2)c(F)cc2c(=O)c(C(=O)O)cn(C3CC3)c12`, for which the MIC (in the experiment with Staphylococcus aureus; in the experiment on Listeria monocytogenes; in experiment [1]; against Klebsiella pneumoniae; in experiment [2]; with Pseudomonas aeruginosa) was < 2.39 µg/mL in each case. In addition, the minimum inhibitory concentration (MIC) with Enterococcus faecalis and against Escherichia coli was < 2.39 µg/mL throughout.
Consider `COc1c(N2C[C@H]3CCCN(Cc4ccc(C)cc4)[C@H]3C2)c(F)cc2c(=O)c(C(=O)O)cn(C3CC3)c12`, for which the MIC (with Staphylococcus aureus; against Listeria monocytogenes; in experiment [1]; against Klebsiella pneumoniae; in experiment [2]; in the experiment with Pseudomonas aeruginosa) was < 2.39 µg/mL throughout. The MIC against Enterococcus faecalis and against Escherichia coli was < 2.39 µg/mL each time.
With `COc1c(N2C[C@H]3CCCN(Cc4ccccc4)[C@H]3C2)c(F)cc2c(=O)c(C(=O)O)cn(C3CC3)c12`, the MIC (against Staphylococcus aureus; against Listeria monocytogenes; in [1]; with Klebsiella pneumoniae; in experiment [2]; in the experiment on Pseudomonas aeruginosa) was < 2.39 µg/mL in each case. The MIC in the experiment on Enterococcus faecalis and in the experiment with Escherichia coli was < 2.39 µg/mL throughout.
With `COc1c(N2C[C@H]3CCCN(Cc4ccc([N+](=O)[O-])cc4)[C@H]3C2)c(F)cc2c(=O)c(C(=O)O)cn(C3CC3)c12`, the MIC (with Staphylococcus aureus; in the experiment with Listeria monocytogenes; in experiment [1]; with Klebsiella pneumoniae; in experiment [2]; in the experiment with Pseudomonas aeruginosa) was < 2.39 µg/mL each time. Also, the MIC with Enterococcus faecalis and in the experiment on Escherichia coli was < 2.39 µg/mL throughout.
As to `COc1c(N2C[C@H]3CCCN(S(=O)(=O)c4ccc(F)cc4)[C@H]3C2)c(F)cc2c(=O)c(C(=O)O)cn(C3CC3)c12`, the minimal inhibitory concentration (MIC) (against Staphylococcus aureus; with Listeria monocytogenes; in experiment [1]; against Klebsiella pneumoniae; in experiment [2]; with Pseudomonas aeruginosa) was < 2.42 µg/mL throughout. The MIC in the experiment on Enterococcus faecalis and in the experiment with Escherichia coli was < 2.42 µg/mL throughout.
`COc1c(N2C[C@H]3CCCN(S(=O)(=O)c4ccc([N+](=O)[O-])cc4)[C@H]3C2)c(F)cc2c(=O)c(C(=O)O)cn(C3CC3)c12`: the minimum inhibitory concentration (MIC) (in the experiment with Staphylococcus aureus; with Listeria monocytogenes; in [1]; against Klebsiella pneumoniae; in experiment [2]; in the experiment on Pseudomonas aeruginosa) was < 2.42 µg/mL throughout. The MIC against Enterococcus faecalis and in the experiment on Escherichia coli was < 2.42 µg/mL throughout.
In the case of `COc1c(N2C[C@H]3CCCN(Cc4ccc(Br)cc4)[C@H]3C2)c(F)cc2c(=O)c(C(=O)O)cn(C3CC3)c12`, the MIC (in the experiment with Staphylococcus aureus; against Listeria monocytogenes; in experiment [1]; in the experiment with Klebsiella pneumoniae; in experiment [2]; against Pseudomonas aeruginosa) was < 2.39 µg/mL throughout. The MIC with Enterococcus faecalis and against Escherichia coli was < 2.39 µg/mL throughout.
As for `COc1ccc(S(=O)(=O)N2CCC[C@@H]3CN(c4c(F)cc5c(=O)c(C(=O)O)cn(C6CC6)c5c4OC)C[C@@H]32)cc1`, the minimum inhibitory concentration (MIC) (with Staphylococcus aureus; against Listeria monocytogenes; in experiment [1]; against Klebsiella pneumoniae; in [2]; with Pseudomonas aeruginosa) was < 2.42 µg/mL throughout. Also, the MIC in the experiment on Enterococcus faecalis and against Escherichia coli was < 2.42 µg/mL in each case.
As for `C=CCn1c(SCC(=O)N2CCN(c3cc4c(cc3F)c(=O)c(C(=O)O)cn4C3CC3)CC2)nnc1-c1ccccc1`, the MIC against Staphylococcus aureus, against Klebsiella pneumoniae, in the experiment with Pseudomonas aeruginosa and against Escherichia coli was 1.42 µg/mL (≈ 2.41 µM) each time.
`COc1c(N2C[C@H]3CCCN(S(=O)(=O)c4ccc(Cl)cc4)[C@H]3C2)c(F)cc2c(=O)c(C(=O)O)cn(C3CC3)c12`: the minimal inhibitory concentration (MIC) (against Staphylococcus aureus; in the experiment with Listeria monocytogenes; in [1]; in the experiment with Klebsiella pneumoniae; in [2]; against Pseudomonas aeruginosa) was < 2.42 µg/mL each time. For the same compound, the MIC against Enterococcus faecalis and in the experiment on Escherichia coli was < 2.42 µg/mL each time.
Take `COc1c(N2C[C@H]3CCCN(Cc4ccc(F)cc4)[C@H]3C2)c(F)cc2c(=O)c(C(=O)O)cn(C3CC3)c12`: the MIC (in the experiment with Staphylococcus aureus; against Listeria monocytogenes; in [1]; against Klebsiella pneumoniae; in experiment [2]; in the experiment on Pseudomonas aeruginosa) was < 2.39 µg/mL each time. For the same compound, the MIC against Enterococcus faecalis and with Escherichia coli was < 2.39 µg/mL in each case.
As to `COc1ccc(CN2CCC[C@@H]3CN(c4c(F)cc5c(=O)c(C(=O)O)cn(C6CC6)c5c4OC)C[C@@H]32)cc1`, the MIC (in the experiment with Staphylococcus aureus; with Listeria monocytogenes; in experiment [1]; in the experiment with Klebsiella pneumoniae; in experiment [2]; with Pseudomonas aeruginosa) was < 2.39 µg/mL in each case. Besides, the minimum inhibitory concentration (MIC) against Enterococcus faecalis and in the experiment with Escherichia coli was < 2.39 µg/mL throughout.
With `O=C(CSC(=S)N1CCN(c2cc3c(cc2F)c(=O)c(C(=O)O)cn3C2CC2)CC1)Nc1cccc(Cl)c1`, the minimum inhibitory concentration (MIC) against Pseudomonas aeruginosa is 0.195 µg/mL (≈ 0.339 µM); in the experiment on Escherichia coli it was 0.024 µg/mL (≈ 0.0417 µM); in [3], 0.024 µg/mL (≈ 0.0417 µM).
`COc1c(N2C[C@H]3CCCN(S(=O)(=O)c4ccccc4)[C@H]3C2)c(F)cc2c(=O)c(C(=O)O)cn(C3CC3)c12`: the minimal inhibitory concentration (MIC) (against Staphylococcus aureus; against Listeria monocytogenes; in [1]; against Klebsiella pneumoniae; in [2]; against Pseudomonas aeruginosa) was < 2.42 µg/mL in each case. Further, the MIC with Enterococcus faecalis and against Escherichia coli was < 2.42 µg/mL in each case.
As for `COc1c(N2C[C@H]3CCCN(S(=O)(=O)c4ccc(C)cc4)[C@H]3C2)c(F)cc2c(=O)c(C(=O)O)cn(C3CC3)c12`, the MIC (against Staphylococcus aureus; against Listeria monocytogenes; in [1]; in the experiment with Klebsiella pneumoniae; in [2]; with Pseudomonas aeruginosa) was < 2.42 µg/mL throughout. For the same compound, the MIC with Enterococcus faecalis and in the experiment on Escherichia coli was < 2.42 µg/mL throughout.
Turning to `CCn1cc(C(=O)O)c(=O)c2cc(F)c(N3CCN(CCC(=O)Nc4ccc(/C(C)=N\OC)cc4)CC3)cc21`, the MIC against Klebsiella pneumoniae is > 50 µg/mL.
For `COc1c(N2C[C@H]3CCCN(S(=O)(=O)c4ccc(Br)cc4)[C@H]3C2)c(F)cc2c(=O)c(C(=O)O)cn(C3CC3)c12`, the MIC (against Staphylococcus aureus; with Listeria monocytogenes; in experiment [1]; in the experiment on Klebsiella pneumoniae; in experiment [2]; in the experiment on Pseudomonas aeruginosa) was < 2.42 µg/mL each time. For the same compound, the minimal inhibitory concentration (MIC) against Enterococcus faecalis and against Escherichia coli was < 2.42 µg/mL throughout.
As for `C=Cn1c(SCC(=O)N2CCN(c3cc4c(cc3F)c(=O)c(C(=O)O)cn4C3CC3)CC2)nnc1-c1ccccc1`, the minimum inhibitory concentration (MIC) against Staphylococcus aureus came out at 1.7 µg/mL (≈ 2.96 µM); against Klebsiella pneumoniae, 1.7 µg/mL (≈ 2.96 µM); in the experiment on Pseudomonas aeruginosa, 1.42 µg/mL (≈ 2.47 µM); in the experiment with Escherichia coli, 1.7 µg/mL (≈ 2.96 µM).
